Assay results: patent US20260102422A1, “4'-HALOGEN CONTAINING NUCLEOTIDE AND NUCLEOSIDE THERAPEUTIC COMPOSITIONS AND USES RELATED THERETO” (priority 2019, published 2026)

Tests used:
Mayaro = Mayaro antiviral assay; assay type: cell-based; details: strain BEAR 505411; Vero 76 cells
A549 cells = assay: Cytotoxicity (CC50) in A549 cells; assay type: cell-based; details: A549, Human, Lung
Pichinde virus = assay type: cell-based
BxPC-3 cells = assay: Cytotoxicity (CC50) in BxPC-3 cells; assay type: cell-based; details: BxPC-3, Human, Pancreas
Poliovirus = assay: microbe, parasite or virus in culture; assay type: cell-based; details: Enterovirus C, Vero 76
HBTECs = assay: Cytotoxicity (CC50) in HBTECs; assay type: cell-based; details: Human, Respiratory Tract
Enterovirus-68 = Enterovirus-68 antiviral assay; assay type: cell-based; details: strain US/KY/14-18953; RD cells
A-204 cells = assay: Cytotoxicity (CC50) in A-204 cells; assay type: cell-based; details: A204, Human, Muscle
BHK-T7 cells = assay: Cytotoxicity (CC50) in BHK-T7 cells; assay type: cell-based; details: BHK-T7, Hamster, Kidney
HepG2/Gal* cells = assay: Cytotoxicity (CC50) in HepG2/Gal* cells; assay type: cell-based; details: Human
[1] = Ferret plasma PK, single dose; assay type: in vivo; details: ferrets; for AUC(0-inf) / Cmax / Tmax / half-life: plasma
Junin virus = assay: microbe, parasite or virus in culture; assay type: cell-based; details: Mammarenavirus juninense
Lujo = assay: microbe, parasite or virus in culture; assay type: cell-based, Lujo virus; details: Mammarenavirus lujoense
MA-104 cells = assay: Cytotoxicity (CC50) in MA-104 cells; assay type: cell-based; details: MA-104, Monkey, Kidney, n = 2
CEM cells = assay: Cytotoxicity (CC50) in CEM cells; assay type: cell-based; details: Human, Lymphoid
BEAS-28 cells = assay: Cytotoxicity (CC50) in BEAS-28 cells; assay type: cell-based; details: BEAS-28, Human, Lung
Huh-7 cells = assay: Cytotoxicity (CC50) in Huh-7 cells; assay type: cell-based; details: Huh7, Human, Liver, n = 3
EEEV = assay: microbe, parasite or virus in culture; assay type: cell-based; details: Eastern equine encephalitis virus, Vero 76
RAW264.7 cells = assay: Cytotoxicity (CC50) in RAW264.7 cells; assay type: cell-based; details: RAW 264.7, Mouse, Macrophage
IEC-6 cells = assay: Cytotoxicity (CC50) in IEC-6 cells; assay type: cell-based; details: IEC-6, Rat, Small intestine
HG23 cells = assay: Cytotoxicity (CC50) in HG23 cells; assay type: cell-based; details: HG23, Human
MDCK/Gal* cells = assay: Cytotoxicity (CC50) in MDCK/Gal* cells; assay type: cell-based; details: Canine, Kidney
MDCK cells = assay: Cytotoxicity (CC50) in MDCK cells; assay type: cell-based; details: Canine, Kidney, n = 6
[2] = Mouse plasma PK, single dose; details: for AUC-INF/Dose / Cmax/Dose: CD-1 mice; for AUC(0-inf) / Cmax / half-life / Tmax: female, ICR (CD-1), mouse, plasma, po
H9c2 cells = assay: Cytotoxicity (CC50) in H9c2 cells; assay type: cell-based; details: H9c2, Rat, Heart
[3] = Guinea pig plasma PK, single dose; assay type: in vivo; details: Guinea pigs
Machupo = assay: microbe, parasite or virus in culture; assay type: cell-based, Machupo virus; details: Mammarenavirus machupoense
Vero cells = details: green monkey
BEAS-28/Gal* cells = assay: Cytotoxicity (CC50) in BEAS-28/Gal* cells; assay type: cell-based; details: Human, Lung
Measles = Measles antiviral assay; assay type: cell-based, measles virus; details: Measles morbillivirus; strain CC; Vero 76 cells
[4] = Cytotoxicity (CC50) in HeLa cells; assay type: cell-based; details: human, alongside antiviral assays
RD cells = assay: Cytotoxicity (CC50) in RD cells; assay type: cell-based, Human; details: RD, Human, Muscle
[5] = Cytotoxicity (CC50) in RD cells; assay type: cell-based, Human; details: human, RD cells, alongside antiviral assays
Lassa fever virus = assay: organism not typed; assay type: cell-based
HCoV-beta OC43 = HCoV-beta OC43 antiviral assay; assay type: cell-based; details: Betacoronavirus 1; strain OC43; RD cells
MERS = assay: microbe, parasite or virus in culture; assay type: cell-based, Middle East Respiratory Syndrome coronavirus
HCoV-alpha 229E = HCoV-alpha 229E antiviral assay; assay type: cell-based, HCoV-229E; details: Human coronavirus 229E; strain 229E; Huh-7 cells
SARS = assay: microbe, parasite or virus in culture; assay type: cell-based, SARS coronavirus; details: Severe acute respiratory syndrome coronavirus, Vero 76
in vitro = details: human
SARS-CoV-2 = assay: microbe, parasite or virus in culture; assay type: cell-based; details: Severe acute respiratory syndrome coronavirus 2, Calu-3
[6] = Liver microsome stability, rat; details: rat liver microsomes, drug 1.00 μM
Plasma stability, mouse = details: drug 1.00 μM
Plasma stability, rat = details: drug 1.00 μM
[7] = Liver microsome stability, human; details: human liver microsomes, drug 1.00 μM
[8] = Liver microsome stability, mouse; details: mouse liver microsomes, drug 1.00 μM
Plasma stability, human = details: drug 1.00 μM
[9] = guinea pig, 50 mg/kg PO, plasma

O=c1ccn([C@@H]2O[C@](F)(CO)[C@@H](O)[C@H]2O)c(=O)[nH]1 [EIDD-02749, 1-[(2R, 3R, 4S, 5S)-5-fluoro-3,4-dihydroxy-5-(hydroxymethyl)tetrahydrofuran-2-yl]pyrimidine-2,4-dione]
EC50 (Mayaro): 2810 nM | EC90 (Mayaro): 9500 nM | CC (A549 cells): >400 µM | EC90 (Pichinde virus): 320 nM | CC (BxPC-3 cells): >400 µM | EC90 (Poliovirus): 3800 nM | CC (HBTECs): >500 µM | EC90 (Enterovirus-68): 1060 nM | CC (A-204 cells): >400 µM | CC (BHK-T7 cells): >500 µM | CC (HepG2/Gal* cells): >400 µM | AUC-INF/Dose ([1]; 15 mg/kg PO): 2691.2 ± 483.7 h*kg*nmol/mL/mmol | Cmax/Dose ([1]; 15 mg/kg PO): 608.2 ± 114.0 kg*nmol/mL/mmol | AUC(0-inf) ([1]; 15 mg/kg PO): 154 ± 27.6 µM·h | Cmax ([1]; 15 mg/kg PO): 34.8 ± 6.5 µM | Tmax ([1]; 15 mg/kg PO): 1 h | half-life ([1]; 15 mg/kg PO): 5.97 ± 0.35 h | AUC-INF/Dose ([1]; 50 mg/kg PO): 2166.1 ± 409.8 h*kg*nmol/mL/mmol | Cmax/Dose ([1]; 50 mg/kg PO): 332.0 ± 57.5 kg*nmol/mL/mmol | AUC(0-inf) ([1]; 50 mg/kg PO): 413 ± 78.1 µM·h | Cmax ([1]; 50 mg/kg PO): 63.3 ± 10.9 µM | Tmax ([1]; 50 mg/kg PO): 2.3 ± 1.5 h | half-life ([1]; 50 mg/kg PO): 4.3 ± 0.8 h | EC50 (Junin virus; HeLa): 20 nM | EC50 (Junin virus; Huh-7): 250 nM | EC50 (Junin virus; Vero C1008): 80 nM | EC50 (Lujo; HeLa): 70 nM | EC50 (Lujo; Huh-7): 1320 nM | EC50 (Lujo; Vero C1008): 830 nM | CC (MA-104 cells): >380 µM | CC (CEM cells): 107 µM | CC (BEAS-28 cells): >500 µM | CC (Huh-7 cells): >400 µM | EC90 (EEEV): 1790 nM | CC (RAW264.7 cells): >100 µM | CC (IEC-6 cells): >400 µM | CC (HG23 cells): 100 µM | CC (MDCK/Gal* cells): 444 µM | CC (MDCK cells): >380 µM | AUC-INF/Dose ([2]; 10 mg/kg IP): 514.5 h*kg*nmol/mL/mmol | Cmax/Dose ([2]; 10 mg/kg IP): 202.1 kg*nmol/mL/mmol | AUC-INF/Dose ([2]; 50 mg/kg PO): 1215.0 h*kg*nmol/mL/mmol | Cmax/Dose ([2]; 50 mg/kg PO): 184.3 kg*nmol/mL/mmol | AUC-INF/Dose ([2]; 150 mg/kg PO): 685.8 h*kg*nmol/mL/mmol | Cmax/Dose ([2]; 150 mg/kg PO): 76.2 kg*nmol/mL/mmol | Cmax/Dose ([2]; 500 mg/kg PO): 39.9 kg*nmol/mL/mmol | AUC(0-inf) ([2]; 1.5 mg/kg): 6.58 µM·h | Cmax ([2]; 1.5 mg/kg): 1.2 µM | half-life ([2]; 1.5 mg/kg): 17.9 h | AUC(0-inf) ([2]; 5 mg/kg): 28.6 µM·h | Cmax ([2]; 5 mg/kg): 7.1 µM | half-life ([2]; 5 mg/kg): 15.2 h | AUC(0-inf) ([2]; 15 mg/kg): 86.9 µM·h | Cmax ([2]; 15 mg/kg): 23.3 µM | half-life ([2]; 15 mg/kg): 20.3 h | half-life ([2]; 50 mg/kg): 8.28 h | Tmax ([2]; 150 mg/kg): 1 h | half-life ([2]; 150 mg/kg): 8.46 h | Tmax ([2]; 500 mg/kg): 1 h | CC (H9c2 cells): >400 µM | AUC0->∞/Dose ([3]; 5 mg/kg IV): 5639.4 ± 234.2 h · kg · nmol/mL · mmol | Cmax/Dose ([3]; 5 mg/kg IV): 7525.0 ± 6050.9 kg · nmol/mL · mmol | AUC0->∞/Dose ([3]; 5 mg/kg PO): 4869.4 ± 841.9 h · kg · nmol/mL · mmol | Cmax/Dose ([3]; 5 mg/kg PO): 1054.5 ± 118.8 kg · nmol/mL · mmol | VD ([3]; 5 mg/kg PO): 13.0 ± 1.6 L/kg | AUC0->∞/Dose ([3]; 50 mg/kg PO): 2923.1 ± 209.6 h · kg · nmol/mL · mmol | Cmax/Dose ([3]; 50 mg/kg PO): 453.0 ± 51.2 kg · nmol/mL · mmol | VD ([3]; 50 mg/kg PO): 14.9 ± 1.9 L/kg | clearance ([3]; guinea pig, plasma, 5 mg/kg IV): 3 mL/min/kg | AUC(0-inf) ([3]; guinea pig, 5 mg/kg IV, plasma): 108 ± 4.5 µM·h | Cmax ([3]; guinea pig, 5 mg/kg IV, plasma): 144 ± 115 µM | Tmax ([3]; guinea pig, 5 mg/kg IV, plasma): 0.083 h | half-life ([3]; guinea pig, 5 mg/kg IV, plasma): 9.3 ± 1.3 h | AUC(0-inf) ([3]; guinea pig, 5 mg/kg PO, plasma): 92.9 ± 16.1 µM·h | Cmax ([3]; guinea pig, 5 mg/kg PO, plasma): 20.1 ± 2.3 µM | Tmax ([3]; guinea pig, 5 mg/kg PO, plasma): 1.3 ± 0.5 h | half-life ([3]; guinea pig, 5 mg/kg PO, plasma): 20.1 ± 2.3 h | AUC(0-inf) [3, 9]: 558 ± 39.9 µM·h | Cmax [3, 9]: 86.4 ± 9.8 µM | Tmax [3, 9]: 1.8 ± 0.5 h | half-life [3, 9]: 86.4 ± 9.8 h | EC50 (Machupo; HeLa): 70 nM | EC50 (Machupo; Huh-7): 310 nM | EC50 (Machupo; Vero C1008): 1490 nM | CC (Vero cells): >380 µM | CC (BEAS-28/Gal* cells): 250 µM | EC50 (Measles): 1060 nM | CC50 [4]: 77000 nM | CC (RD cells): >380 µM | CC50 [5]: 228000 nM | EC50 (Lassa fever virus; HeLa): 450 nM | EC50 (Lassa fever virus; Huh-7): 900 nM | EC50 (Lassa fever virus; Vero C1008): 360 nM

O=c1ccn([C@@H]2O[C@](F)(CO)[C@@H](O)[C@H]2O)c(=O)[nH]1 [EIDD-2749]
EC50 (HCoV-beta OC43): 1060 nM | EC90 (HCoV-beta OC43): 2850 nM | EC50 (MERS): 5700 nM | EC90 (MERS; Middle East respiratory syndrome-related coronavirus, Vero 76): 9500 nM | EC50 (HCoV-alpha 229E): 1670 nM | EC90 (HCoV-alpha 229E): 9500 nM | EC50 (SARS): 14100 nM | CC50 (in vitro): > 50000 nM | EC50 (SARS-CoV-2): 1900 nM

O=c1ccn([C@@H]2O[C@](F)(COP3(=O)OCc4ccccc4O3)[C@@H](O)[C@H]2O)c(=O)[nH]1 (stereo partly shown) [EIDD-02838]
half-life [6]: 8 min | max [2749] ([6]; EIDD-2749 formed): 0.218 µM | half-life (Plasma stability, mouse): 1 min | max [2749] (Plasma stability, mouse; EIDD-2749 formed): 0.0216 µM | half-life (Plasma stability, rat): <1 min | max [2749] (Plasma stability, rat; EIDD-2749 formed): 0.0341 µM | half-life [7]: 0.12 h | max [2749] ([7]; EIDD-2749 formed): 0.130 µM | half-life [8]: 7 min | max [2749] ([8]; EIDD-2749 formed): 0.0347 µM | half-life (Plasma stability, human; 37° C): 0.2 h | max [2749] (Plasma stability, human; EIDD-2749 formed): 0.0521 µM

CC(C)C(=O)OC[C@@]1(F)OC(n2ccc(=O)[nH]c2=O)C(O)[C@@H]1O (stereo partly drawn) [EIDD-2947, [(2S, 3S)-5-(2,4-dioxopyrimidin-1-yl)-2-fluoro-3,4-dihydroxy-tetrahydrofuran-2-yl]methyl 2-methylpropanoate]
half-life [7]: 0.733 h
